GI50 and TGI data for eight molecules are collected here from PubChem BioAssay (NCI).

Test systems include IGROV1 ovarian; SF-539 CNS; K-562 leukemia; SW-620 colon; SF-295 CNS; NCI-H23 lung; A498 renal; OVCAR-4 ovarian; OVCAR-8 ovarian; HCT-116 colon.
Assay in all cases: DTP human tumour cell line panel, 48 h

SMILES strings stand for the structures.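 Grown in 96-well plates, cells were treated for 48 hours with each compound at five concentrations. Insufficient inhibition: endpoint recorded as highest concentration tested. Abbreviation: GI50, concentration required for 50% inhibition of growth. Definition used: TGI = concentration required for complete inhibition of growth.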

A word on the GI50: it is the concentration at which growth is held to half of that of the control. A word on the TGI: it is the concentration giving total growth inhibition. Low readings indicate more potent growth arrest, high ones less potent growth arrest. On to `S=C(Sc1ccc(Cl)cc1)Sc1ccc(Cl)cc1`, for which the GI50 is 1.81 µM in the assay with IGROV1 ovarian; 1.74 µM in the assay on SF-539 CNS; 1.87 µM with K-562 leukemia; 1.62 µM in the assay with SW-620 colon; 1.01 µM in the assay with SF-295 CNS; 1.75 µM in the assay on NCI-H23 lung. The GI50 in the assay with A498 renal was 2.91 µM; with OVCAR-4 ovarian, 3.03 µM; in the assay with OVCAR-8 ovarian, 3.66 µM; in the assay with HCT-116 colon, 1.82 µM. The TGI in the assay with IGROV1 ovarian amounted to 3.47 µM; with SF-539 CNS, 3.84 µM; in the assay with K-562 leukemia, 7.63 µM; in the assay on SW-620 colon, 3.01 µM; in the assay with SF-295 CNS, 6.58 µM; with NCI-H23 lung, 3.78 µM. In addition, the TGI in the assay with A498 renal was 7.9 µM; in the assay with OVCAR-4 ovarian it was 10.9 µM; in the assay with OVCAR-8 ovarian, 12.6 µM; in the assay on HCT-116 colon it was 3.53 µM.
Consider `[O-][n+]1c2cccc(O)c2[n+]([O-])c2cccc(O)c21`, for which the TGI with IGROV1 ovarian is 69 µM; in the assay on SF-539 CNS it was more than 100 µM; in the assay with K-562 leukemia, more than 100 µM; in the assay with SW-620 colon it was more than 100 µM; with SF-295 CNS, more than 100 µM; in the assay with NCI-H23 lung, more than 100 µM. Further, the total growth inhibition concentration (TGI) with A498 renal, in the assay with OVCAR-4 ovarian, in the assay on OVCAR-8 ovarian and with HCT-116 colon was more than 100 µM each time.
`OCCNc1nc2ccccc2c2[nH]c3ccccc3c12`: the GI50 is 0.397 µM in the assay with IGROV1 ovarian; 0.615 µM with SF-539 CNS; 0.44 µM with K-562 leukemia; 0.325 µM in the assay on SW-620 colon; 0.314 µM in the assay with SF-295 CNS; 0.496 µM in the assay with NCI-H23 lung. Besides, the GI50 with A498 renal is 0.36 µM; in the assay with OVCAR-4 ovarian, 1.06 µM; with OVCAR-8 ovarian, 0.455 µM; in the assay with HCT-116 colon it was 0.278 µM. Besides, the TGI in the assay on IGROV1 ovarian was 6.1 µM; with SF-539 CNS it was 3.68 µM; with K-562 leukemia, more than 26.3 µM; in the assay with SW-620 colon, 2.26 µM; in the assay with SF-295 CNS it was 2.42 µM; in the assay with NCI-H23 lung, 1.88 µM. Further, the TGI with A498 renal is 1.72 µM; in the assay on OVCAR-4 ovarian it was 4.59 µM; with OVCAR-8 ovarian, 4.7 µM; in the assay with HCT-116 colon it was 1.68 µM.
For `OCc1ccc(-c2ccc(-c3ccc(CO)o3)o2)o1`, the TGI was more than 31.2 µM with IGROV1 ovarian; more than 100 µM in the assay with SF-539 CNS; more than 100 µM with K-562 leukemia; more than 100 µM with SW-620 colon; more than 100 µM with SF-295 CNS; more than 100 µM in the assay with NCI-H23 lung. Also, the TGI with A498 renal was 0.39 µM; in the assay with OVCAR-4 ovarian, more than 100 µM; in the assay with OVCAR-8 ovarian it was more than 100 µM; in the assay on HCT-116 colon it was more than 100 µM. Also, the GI50 was more than 100 µM with SF-539 CNS; more than 100 µM in the assay on K-562 leukemia; more than 100 µM in the assay on SW-620 colon; 23.7 µM with SF-295 CNS; more than 100 µM with NCI-H23 lung; 0.18 µM in the assay with A498 renal. Moreover, the GI50 was more than 41.3 µM in the assay on OVCAR-4 ovarian, more than 100 µM in the assay on OVCAR-8 ovarian and more than 88.9 µM in the assay on HCT-116 colon.
As to `O=C1Nc2ccc(-c3cccnc3)cc2/C1=C/c1cc(Br)c(O)c(Br)c1`, the GI50 in the assay on IGROV1 ovarian was 7.09 µM; with SF-539 CNS, 5.15 µM; in the assay on K-562 leukemia, 9.07 µM; in the assay with SW-620 colon it was 8.23 µM; in the assay with SF-295 CNS, 5.25 µM; with NCI-H23 lung, 6.86 µM. Besides, the GI50 with A498 renal is 3.86 µM; in the assay with OVCAR-4 ovarian, 14.8 µM; in the assay on OVCAR-8 ovarian, 9.89 µM; in the assay with HCT-116 colon, 6.54 µM. The TGI was more than 25 µM with IGROV1 ovarian; more than 22.4 µM with SF-539 CNS; more than 25 µM in the assay on K-562 leukemia; more than 25 µM in the assay with SW-620 colon; 13.7 µM with SF-295 CNS; more than 21.9 µM with NCI-H23 lung. Moreover, the TGI in the assay with A498 renal is 11.5 µM; in the assay on OVCAR-4 ovarian, more than 25 µM; with OVCAR-8 ovarian, more than 25 µM; in the assay with HCT-116 colon, more than 25 µM.
Take `O=C(CI)NC(=O)NC(=O)NCc1ccccc1`: the GI50 was 2.56 µM in the assay with IGROV1 ovarian; 1.92 µM with SF-539 CNS; 1.16 µM in the assay with K-562 leukemia; 1.77 µM with SW-620 colon; 14.1 µM in the assay with SF-295 CNS; 4.32 µM in the assay on NCI-H23 lung. Moreover, the GI50 in the assay on A498 renal was 15.9 µM; with OVCAR-4 ovarian it was 4.42 µM; with OVCAR-8 ovarian, 4.32 µM; in the assay with HCT-116 colon, 3.39 µM. Moreover, the TGI with IGROV1 ovarian turned out to be 6.83 µM; in the assay with SF-539 CNS it was 4 µM; in the assay with K-562 leukemia, 4.05 µM; with SW-620 colon, 3.78 µM; in the assay on SF-295 CNS, 31.9 µM; in the assay on NCI-H23 lung, 19.5 µM. The TGI in the assay on A498 renal is 30.9 µM; in the assay on OVCAR-4 ovarian, 31 µM; in the assay on OVCAR-8 ovarian it was 19.6 µM; in the assay on HCT-116 colon, 12.6 µM.
For `CC(C)N(C(=O)C12C3C4C1C1C4(C#N)C3C12C(=O)O)C(C)C` (centres undefined), the concentration for total growth inhibition (TGI) with IGROV1 ovarian, with SF-539 CNS, with K-562 leukemia, in the assay with SW-620 colon, in the assay with SF-295 CNS and with NCI-H23 lung was more than 100 µM throughout. Besides, the TGI with A498 renal, in the assay with OVCAR-4 ovarian, in the assay with OVCAR-8 ovarian and with HCT-116 colon was more than 100 µM throughout.
In the case of `CCc1ccc(Oc2c(-c3ccc(OCc4ccc(Cl)cc4)cc3O)nn(C)c2C(F)(F)F)cc1`, the GI50 was 0.654 µM in the assay on IGROV1 ovarian; 1.77 µM in the assay on SF-539 CNS; 0.39 µM with K-562 leukemia; 0.382 µM with SW-620 colon; 0.947 µM in the assay with SF-295 CNS; 0.376 µM with NCI-H23 lung. For the same molecule, the GI50 in the assay on A498 renal is 1.28 µM; in the assay on OVCAR-4 ovarian, 0.547 µM; in the assay on OVCAR-8 ovarian it was 1.35 µM; in the assay with HCT-116 colon, 0.259 µM. Further, the TGI worked out at 2.7 µM in the assay on IGROV1 ovarian; 3.75 µM in the assay with SF-539 CNS; 1.58 µM with K-562 leukemia; 1.76 µM in the assay on SW-620 colon; 2.51 µM in the assay on SF-295 CNS; 1.74 µM in the assay with NCI-H23 lung. Also, the TGI with A498 renal worked out at 2.93 µM; in the assay on OVCAR-4 ovarian, 2.33 µM; with OVCAR-8 ovarian it was 3.79 µM; in the assay on HCT-116 colon, 1.1 µM.
